“And” between values parts separate entries of the source, which are not always exact repeats. Identical values can stand only once. Like-named read-outs stand apart in the source and are kept apart here.
Key:
[1] = Multiple ascending dose plasma pharmacokinetics in healthy volunteers; format: in vivo, human; conditions: for Cmax / Tmax / AUC(0-t) / half-life: human, plasma, oral; for AUC(0-t): read-out: AUC0-24
Experimental: (§1) In the single-dose phase, participants were randomized 6:2 to paltusotine (1.25, 2.5, 5, 10, 20, 40, and 60 mg) or placebo in 7 cohorts (S1 to S7). Cohorts comparing oral bioavailability of solution versus capsules and the effect of a standardized high-fat, high-calorie breakfast on oral bioavailability of the capsule formulation employed the 10 mg dose level. In the multiple-dose phase, participants were randomized 6:3 to once-daily oral paltusotine capsules or placebo at doses of 5 mg for 7 days (M1, Day Last = Day 7), and 10, 20, and 30 mg daily for 10 days (M2, M3, M4, Day Last = Day 10). The initial starting dose of 1.25 mg in the single-dose phase was selected for this study based on nonclinical pharmacologic activity, pharmacokinetics, and safety studies. Subsequent doses were either specified in the protocol or were selected by the safety review committee responsible for the safety oversight of the study.
Single-dose cohorts: Plasma samples were collected on Day 1 (pre-dose, every 15 min up to 90 min post-dose, then at 2, 3, 4, 6, 8, 10, 12, 18, 24, 48, 72, 96, 120, and 144 h post-dose). Multiple-dose cohorts: For the 5 mg cohort, plasma samples were collected on Day 1 (pre-dose, every 15 min up to 90 min post-dose, then at 2, 3, 4, 6, 8, 10, 12, and 18 h post-dose), Days 2–6 (pre-dose and 2 h post-dose), Day 7 (same time points as Day 1, followed by samples at 18, 24, 48, 72, 96, 120, and 144 h post-dose). For all other multiple-dose cohorts, plasma samples were collected on Day 1 (pre-dose, every 15 min up to 90 min post-dose, then at 2, 3, 4, 6, 8, 10, 12, and 18 h post-dose), Days […] (same time points as Day 1, followed by samples at 18, 24, 48, 72, 96, 120, 144, 192, and 240 h post-dose).
Plasma pharmacokinetic sample analysis for paltusotine was determined using validated procedures by CPR Pharma Services (Thebarton, Australia). Briefly, plasma paltusotine concentrations were determined by high-pressure liquid chromatography (HPLC) coupled with tandem mass spectrometry detection (MS/MS). Deuterated paltusotine was used as an internal standard. Supported liquid extraction was used to extract paltusotine and the internal standard. The analyte was separated by HPLC using an ACE C18-AR column (Advanced Chromatography Technologies, Ltd, Aberdeen, Scotland), and the eluates were monitored by an API 4000™ LC–MS/MS System (Sciex, Framingham, MA) in positive multiple reaction monitoring mode. The extract was then assayed against a calibration curve. The data were acquired and integrated by the data acquisition software Analyst® (Sciex), linked directly to the API 4000™ LC–MS/MS System, and then processed using Watson LIMS™ software (Thermo Scientific, Waltham, MA), where applicable. The calibration range was 0.100 to 100 ng/mL using 100 μL of plasma, with a lower limit of quantification of 0.100 ng/mL. The inter-assay accuracy was 94% to 100%, and the inter-assay precision (% CV) was between 6.1% and 15%.
(§2) For assessing pharmacokinetics of paltusotine, the single-dose pharmacokinetic population included all randomized participants who received any amount of study drug with sufficient plasma concentration data. For the multiple-dose cohorts, only participants who received all doses were included. The relative bioavailability of the capsule formulation was determined by comparing its pharmacokinetic parameters with those of the solution formulation at the 10 mg dose. Food effect was determined at the same dose by comparing pharmacokinetic parameters in the fasting state to those when paltusotine was administered with a high-fat, high-calorie meal. For both formulation and food effect, ANOVA with treatment as a fixed effect and subject as a random effect was performed. Data for peak concentration (Cmax), AUC0-last, and AUC0-inf were natural log-transformed.

[2] = Relative bioavailability of capsule versus solution and food effect (10 mg); format: in vivo, human; conditions: for Tmax: human, plasma, oral
Experimental: Screening occurred within 28 days prior to the first administered dose (Day 1) in both single-dose and multiple-dose cohorts. Participants were confined to a clinical research unit from Day -2 until the day after the last dose. Dosing of paltusotine or placebo commenced on Day 1 after baseline studies. Participants fasted overnight for ≥ 10 h prior to each dose administration and remained fasting until 4 h post-dose (after collection of the last GH sample after growth hormone-releasing hormone [GHRH] challenge). For the food effect cohort, the study drug was administered 30 min after a high-fat and high-calorie breakfast. Crinetics Pharmaceuticals, Inc (San Diego, CA) provided the active ingredient, paltusotine (3-[4-(4-Aminopiperidin-1-yl)-3-(3,5-difluorophenyl)quinolin-6-yl]-2-hydroxybenzonitrile hydrochloride; CRN00808), for administration as either an oral solution (prepared on site at the Phase 1 unit) or as capsules (placebo, 5 mg, and 20 mg).
as §1, §2

[3] = system: SST2; design: method as in ref 13 = [13]; 13. Betz SF Markison S Kusnetzow AK Athanacio JD Rico-Bautista E Madan A Suppression of growth hormone and insulin-like growth factor 1 in rats after oral administration of CRN00808, a small molecule; conditions: cited from earlier work
[4] = 5 mg, 5 mg capsules once daily, Day 1, mean ± SD
[5] = 5 mg, 5 mg capsules once daily, Day 7, mean ± SD
[6] = 10 mg, 10 mg capsules once daily, Day 1, mean ± SD
[7] = 10 mg, 10 mg capsules once daily, Day 10, mean ± SD
[8] = 20 mg, 20 mg capsules once daily, Day 1, mean ± SD
[9] = 20 mg, 20 mg capsules once daily, Day 10, mean ± SD
[10] = 30 mg, 30 mg capsules once daily, Day 1, mean ± SD
[11] = 30 mg, 30 mg capsules once daily, Day 10, mean ± SD

With Cl.N#Cc1cccc(-c2ccc3ncc(-c4cc(F)cc(F)c4)c(N4CCC(N)CC4)c3c2)c1O [paltusotine, 3-[4-(4-Aminopiperidin-1-yl)-3-(3,5-difluorophenyl)quinolin-6-yl]-2-hydroxybenzonitrile hydrochloride] the Ctrough ([1]; 5 mg capsules once daily, Day 7, mean ± SD) was 10.8 ± 5.11 ng/mL, the Ctrough ([1]; 10 mg capsules once daily, Day 10, mean ± SD) was 22.2 ng/mL and 22.2 ± 7.38 ng/mL and the Ctrough ([1]; 20 mg capsules once daily, Day 10, mean ± SD) was 37.9 ± 11.4 ng/mL. For the same molecule, the Ctrough ([1]; 30 mg capsules once daily, Day 10, mean ± SD) was 51.1 ± 32.0 ng/mL, the Cmax [1, 4] was 16.8 ± 7.22 ng/mL and the Tmax [1, 4] was 1.2 ± 0.1 h. The AUC(0-t) [1, 4] was 167 ± 73.4 ng·h/mL, the half-life ([1]; 5 mg, 5 mg capsules once daily, Day 7, sampling to 144 h, mean ± SD, read-out: t1/2 (converted)) was 34 ± 4.7 h and the Cmax [1, 5] was 35.5 ± 12 ng/mL. For the same molecule, the Tmax [1, 5] was 2.1 ± 0.6 h, the AUC(0-t) [1, 5] was 421 ± 163 ng·h/mL and the Cmax [1, 6] was 78.7 ± 45.3 ng/mL. The Tmax [1, 6] was 1.8 ± 0.9 h, the AUC(0-t) [1, 6] was 661 ± 340 ng·h/mL and the half-life ([1]; 10 mg, 10 mg capsules once daily, Day 10, sampling to 240 h, mean ± SD, read-out: t1/2 (converted)) was 42 ± 5 h. For the same molecule, the Cmax [1, 7] was 75.5 ± 37.4 ng/mL, the Tmax [1, 7] was 3 ± 1.8 h and the AUC(0-t) [1, 7] was 956 ± 371 ng·h/mL. The Cmax [1, 8] was 88.7 ± 43.3 ng/mL, the Tmax [1, 8] was 2.4 ± 0.8 h and the AUC(0-t) [1, 8] was 811 ± 409 ng·h/mL. For the same molecule, the half-life ([1]; 20 mg, 20 mg capsules once daily, Day 10, sampling to 240 h, mean ± SD, read-out: t1/2 (converted)) was 50 ± 6.6 h, the Cmax [1, 9] was 132 ± 79.2 ng/mL and the Tmax [1, 9] was 1.6 ± 0.4 h. The AUC(0-t) [1, 9] was 1560 ± 733 ng·h/mL, the Cmax [1, 10] was 78.2 ± 60.7 ng/mL and the Tmax [1, 10] was 1.4 ± 0.9 h. It also gave an AUC(0-t) [1, 10] of 578 ± 411 ng·h/mL, a half-life ([1]; 30 mg, 30 mg capsules once daily, Day 10, sampling to 240 h, mean ± SD, read-out: t1/2 (converted)) of 46 ± 7.4 h and a Cmax [1, 11] of 154 ± 102 ng/mL. The Tmax [1, 11] was 4.5 ± 2.1 h, the AUC(0-t) [1, 11] was 2080 ± 1220 ng·h/mL and the half-life ([1]; conclusion summary, read-out: approximate t1/2) was 24 to 48 h. For the same molecule, the half-life ([1]; multiple dose 10-30 mg range, sampling to 240 h after last dose, read-out: mean t1/2) was 42 to 50 h, the “AUC0-inf geometric mean ratio, high-fat high-calorie meal relative to fasted” value ([2]; 10 mg capsules) was 17% and the “Cmax geometric mean ratio, high-fat high-calorie meal relative to fasted” value ([2]; 10 mg capsules) was 14%. For the same molecule, the “AUC0-inf geometric mean ratio, capsule relative to oral solution” value ([2]; 10 mg, fasted) was 69%, the “Cmax geometric mean ratio, capsule relative to oral solution” value ([2]; 10 mg, fasted) was 83% and the “decrease in Cmax and AUC0-24 with food” value ([2]; high-fat, high-calorie meal before 10 mg capsule) was “more than 7 fold”. For the same molecule, the Tmax ([2]; 10 mg, 10 mg capsules with high-fat, high-calorie meal) was 3 h, the Tmax ([2]; 10 mg, 10 mg capsules, fasted) was 2.1 h and the “selectivity for SST2 over other somatostatin receptor subtypes” value [3] was greater than 4000 fold. For the same molecule, the EC50 ([3]; read-out: SST2 agonist EC50) was 250 pM.

— paper PMC8894159, “Paltusotine, a novel oral once-daily nonpeptide SST2 receptor agonist, suppresses GH and IGF-1 in healthy volunteers” (Pituitary, 2022)
